The numbers were not newly measured in paper PMC8491460 (Pharmacology Research & Perspectives, 2021), which cites them from elsewhere.

Where a name gives a salt, the structure may show the parent alone.

Data set [1] relates to patients with metastatic melanoma.
Data set [2] has as its system NK cells.
Data set [3] has as its system patients with moderate to severe atopic dermatitis. To be noted: 30 mg administered orally for 8 weeks.
For data set [4], the system named is Colorectal cancer patients. Conditions: 8.8 or 1.2 g per day oral, admission to 10th postoperative day.
In data set [5] the test system is patients with advanced RCC. To be noted: IFNα 3–6 MIU s.c. thrice/week, 800 mg cimetidine, 10 mg meloxicam, 4 mg candesartan or perindopril.
Data set [6] relates to human 1205Lu melanoma tumor. To be noted: 1 mg/kg daily s.c. for 30 days.
The test system of data set [7] is murine EL4 lymphomas. Conditions: 75 mg/kg i.p. three times a week for 2 weeks.
Data set [8] has as its system CD11b^+Gr1^+ immature myeloid cells. Conditions: 0.8 mg/kg i.p. per day for 20 days.
Data set [9] has as its system EL4 lymphoma.
Data set [10] relates to MC‐38 colon carcinoma.
Data set [11] has as its system patients with high‐grade non‐Hodgkin lymphoma. Conditions: 3 MIU IFNα, 1.5 mg/kg IL‐2, and 0.5 mg histamine s.c. 1–2 times daily, 5 days a week.
In data set [12] the test system is patients with metastatic RCC.
Data set [13] has as its system BN‐175 tumors. Conditions: 40 µg melphalan, 1 mg histamine, and 50 µg IL‐2 in 5 ml perfusate.
The conditions of data set [14]: clinical trials, adjuvant to IL‐2 immunotherapy.
Data set [15] deals with breast cancer models E0771 and 4T1. To be noted: 8 mg/kg in drinking water; E0771 and 4T1, respectively.
The subject of data set [16] is uncontrolled, eosinophilic asthma. Conditions: 30 mg per day for 24 weeks.
The test system of data set [17] is patients with moderate‐to‐severe psoriasis. Conditions: 30 and 60 mg per day.
The subject of data set [18] is rheumatoid arthritis. Conditions: 100 mg once daily orally for 12 weeks, phase IIa.
Data set [19] has as its system rheumatoid arthritis. Conditions: phase IIb trial.
[20] abbreviates: histamine 75 µg/mouse i.p., 100–240 µg/mouse of each antibody.
Setting [21] is: histamine 1500 µg/mouse with anti‐PD‐1/anti‐PD‐L1.
Setting [22] is: histamine and anti‐PD‐1/anti‐PD‐L1.

As for `CN(C)/N=N/c1[nH]cnc1C(N)=O` [Dacarbazine], in data set [1], the overall response rates is listed as 16%.

On to `NCCc1c[nH]cn1` [HDC, histamine dihydrochloride], for which, in [2], the “ROS production by M4/M5 cells and apoptosis in adjacent NK cells” value is listed as “inhibited”.

In the case of `CN[C@@H]1CCN(c2cc(NCC3CC3)nc(N)n2)C1` [adriforant], in [3], the eczema and severity entry was “improved eczema and severity”; the tolerability result was “well tolerated”.

As for `CN/C(=N/CCSCc1nc[nH]c1C)NC#N` [cimetidine], the “CD19^+ B cells in blood samples” value in data set [4] is given as “elevated levels”. In addition, the responses entry in data set [5] is on record as “favorable responses”.

Take `NCCc1c[nH]cn1` [histamine, 2‐(4‐imidazolyl)‐ethylamine]: in [6], the “neutrophil‐to‐lymphocyte ratio infiltrate” value is “decreased”; the “tumor growth and neovascular formation” value is “reduced”. Further, the “tumor‐infiltrating DCs” value in [7] (WT mice) is on record as “increased”. In data set [7] (WT mice but not NOX2‐deficient mice), the “growth of murine EL4 lymphomas” value is “reduced”. Further, the “ability of immature myeloid cells to support the growth of tumor allografts” value in data set [8] is reported as “suppressed”. Moreover, the “differentiation of CD11b^+Gr1^+ immature myeloid cells” value in [8] (through H1 receptor and H2 receptor) was “induced their terminal differentiation into monocytes and neutrophils”. Besides, in data set [9] (75 µg/mouse i.p. three times a week), the “accumulation and immunosuppressive features of MDSCs” value is “diminished”. In addition, the tumor growth entry in data set [9] (75 µg/mouse i.p. three times a week starting 1 day before tumor inoculation) was “diminished tumor growth”. The “expression of PD‐L1 on MDSCs or PD‐1 on CD8^+ T cells” value in data set [9] (EL4 tumor‐bearing mice, histamine) is “did not alter”. For the same compound, the “anti‐tumor efficacy of immune checkpoint blockade with anti‐PD‐1/anti‐PD‐L1” value in [9] (setting [20]) is listed as “improved”. In data set [9] (setting [21]), the “fraction of CD8^+ T cells displaying an effector phenotype” value was “slightly increased”; the “intra‐tumoral proportion of MDSCs, or T and NK cells” value is reported as “did not affect”. Also, the “anti‐tumor efficacy of immune checkpoint blockade with anti‐PD‐1/anti‐PD‐L1” value in data set [10] (setting [20]) is “improved”. In data set [10] (histamine 1500 µg/mouse i.p. 3 times a week and anti‐PD‐1/anti‐PD‐L1), the “MC‐38 tumor growth” value is listed as “strongly reduced”. In addition, in data set [10] (setting [22]), the “fraction of CD8^+ T cells with an effector phenotype” value is given as “raised significantly”, the “fraction of intra‐tumoral CD8^+ T cells” value is listed as “tending to increase”, the “intra‐tumoral NK cells” value is reported as “decreased” and the “percentage of intra‐tumoral CD4^+ T cells” value is “not altered”. Besides, the “frequency of cytokine‐producing T cells and NK‐cell‐mediated cytotoxicity” value in data set [11] is on record as “significant increases”. For the same compound, the tolerability entry in [12] (1 mg HDC s.c. b.i.d. with IFNα 3 MIU and IL‐2 2.4 MIU/m^2) is “well tolerated”. The “TILs, blood leukocyte count, f‐chain expression, or cytotoxicity” value in [12] (similar treatment scheme) is recorded as “did not influence”. Besides, the response result in data set [13] was “no improved response”. For the same compound, the tolerability result in [14] was “generally well tolerated”.

With `CNC(=C[N+](=O)[O-])NCCSCc1ccc(CN(C)C)o1` [ranitidine], the “primary tumor growth and metastasis” value in data set [15] is given as “consistently reduced”.

Turning to `Cc1cc(C)c2nc(-c3cnc(NCCCC4CCN(C)CC4)nc3C)[nH]c2c1` [toreforant], in data set [16], the “improvement of uncontrolled, eosinophilic asthma” value was “failed to improve”. The response versus placebo entry in [17] is given as “greater response than placebo”. Besides, the “signs and symptoms of rheumatoid arthritis” value in data set [18] is “reduced”. In addition, the “confirmation of the reduction of signs and symptoms” value in data set [19] was “could not be confirmed”.

For the compound “IL‐2: interleukin‐2 immunotherapeutic cytokine”, the overall response rates in data set [1] is 16%.
